Biological target: factor Xa (Homo sapiens, UniProt P00742)
Test: Factor Xa inhibition (FXa-IC50)
Type: biochemical
Description: The inhibition of factor Xa by the compounds according to the invention and the measurement of the anticoagulant and antithrombotic activity can be determined by conventional in-vitro or in-vivo methods. A suitable method is described, for example, by J. Hauptmann et al. in Thrombosis and Haemostasis 1990, 63, 220-223.
The inhibition of factor Xa can be measured, for example by the method of T. Hara et al. in Thromb. Haemostas. 1994, 71, 314-319.

Chain of factor Xa (P00742 235-488 limits assumed): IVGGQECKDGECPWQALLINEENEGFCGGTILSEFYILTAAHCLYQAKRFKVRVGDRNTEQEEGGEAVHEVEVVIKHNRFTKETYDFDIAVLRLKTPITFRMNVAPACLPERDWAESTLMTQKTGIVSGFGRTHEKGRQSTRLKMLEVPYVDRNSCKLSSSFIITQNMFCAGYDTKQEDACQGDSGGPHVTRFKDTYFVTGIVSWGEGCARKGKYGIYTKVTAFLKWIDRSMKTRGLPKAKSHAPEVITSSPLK
Chain of factor Xa (P00742 41-179 partner limits assumed): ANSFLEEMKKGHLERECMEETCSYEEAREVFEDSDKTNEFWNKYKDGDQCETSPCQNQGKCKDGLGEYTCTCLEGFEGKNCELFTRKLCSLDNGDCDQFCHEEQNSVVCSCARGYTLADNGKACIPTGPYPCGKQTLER

## CCOC(=O)O[C@@H]1C[C@H](C(=O)Nc2ccc(N3CCOCC3=O)cc2)N(C(=O)Nc2ccc(Cl)cc2)C1 [Compound A1, N-1-(4-chlorophenyl)-4-(ethoxycarbonyloxy)-N-2-[4-(3-oxomorpholin-4-yl)phenyl)-(2R,4R)-pyrrolidine-1,2-dicarboxamide]
  IC50: 2 nM

— patent US20080081814A1, “Carbonyl Compounds Which Can be Used as Inhibitors of Coagulation Factor Xa” (priority 2004, published 2008)
